“Also recorded” adds a separate entry of the source.
Legend:
Assay type in all cases: cell-based
[1] = test system: primary isolated human stellate cells (HSC); assay: Primary human hepatic stellate cells stimulated with TGF-β1, total collagen (in vitro fibrosis study)
Description: Primary isolated human stellate cells (HSC) were investigated in the study. The cells were maintained under standard culture conditions and in established culture medium.
Study Model: Viability screening and in vitro fibrosis study, 24 well plate format, 4 day stimulation with recombinant human TGF-β1. In this study, 2.5 and 10 ng/ml TGF-β1 were used.
Primary HSCs were seeded on t=day-1 and cultured in 24 well plates for 24 hours. […] Cells were incubated for an additional 96 hours (t=day 4). Conditioned medium samples were collected for expression analysis of secreted proteins. All wells were used for an alamarBlue assay to assess cell viability/metabolic activity. A separate plate was used at t=day 0 as reference for the alamarBlue assay. Next, the cell-matrix fraction was collected for measurement of total collagen and cell protein levels.
Both test compounds were dissolved in DMSO. Working concentrations were prepared from a stock concentration that is 1000-fold that of the highest working concentration. All controls were incubated with the same DMSO concentration as that present in the highest working concentration.
Total Collagen assay was performed according to the manufacturer's protocol.
Total Protein assay, for use with the Total Collagen assay, was performed according to the manufacturer's protocol. Protein levels were used to correct for differences in cell contents between samples.
Significance of differences between the groups was calculated either parametrically or non-parametrically, using the computer program SPSS. For nonparametric calculations, a Kruskal-Wallis test for several independent samples was used, followed by a Mann-Whitney U-test for independent samples. For parametric calculations, a One-way ANOVA for multiple comparisons was used, followed by Dunnett or Bonferroni's correction.

[2] = test system: 3D InSight Human Liver Microtissues (NASH condition); assay: 3D InSight Liver NASH model, intratissue triglyceride content (10 days)
Description: […]. InSphero's 10-day NASH treatment scheme was applied with compound dosing at days 0, 3, 5 and 7 of treatment. […]. At day 5 of treatment, secreted cytokine levels were measured (LUMINEX™), at days 7 and 10 released procollagen 1 was quantified and at day 10 of treatment intratissue triglyceride content was determined. The release of lactate dehydrogenase (LDH) into culture supernatant was measured at days 3, 5, 7 and 10, in order to detect possible cytotoxicity caused by the treatments. After first data evaluation, released procollagen 3 was measured in supernatants of selected day 10 samples. […]
Cells were dosed on days 0, 3, 5 and […]. Experimental readout measurements comprised collection and freezing of supernatants for LDH measurement on days 3, 5, 7 and 10. Measurement of LDH released into supernatant was analyzed using an LDH-Glo™ Cytotoxicity
Assay (Promega). Measurement of intratissue triglyceride (TG) content after 10 days of treatment was analyzed using a Triglyceride-Glo™ Assay (Promega). […] Measurement of IL-6, IL-8, IP-10, MCP-1, MIP-1α and TNF-α content was analyzed using Magnetic Luminex® Performance Assay, Human XL Cytokine Discovery Base Kit (R&D systems).
. Total TG content in MTs at day 10 of treatment was measured with Triglyceride-Glo™ Assay (Promega), according to InSphero AG protocol. […]

[3] = test system: 3D InSight Human Liver Microtissues; assay: 3D InSight Human Liver Microtissues, DNL condition, intratissue triglyceride content (7 days)
Description: After a 7 day treatment with dosings at days 0, 2 and 5, intratissue lipid accumulation was measured using Triglyceride-Glo™ Assay (Promega). In addition, metabolic activity of the treated Liver Microtissues (MTs) and cytotoxicity were assessed by measurement of ATP content at day 7 of treatment (CellTiter-Glo® 2.0 Cell Viability Assay, Promega) and LDH release between days 0-2, days 2-5 and days 5-7 (LDH-Glo™ Cytotoxicity Assay, Promega), respectively. Leftover supernatant collected on treatment days 2, 5 and 7 were stored frozen for further analysis. […] Experimental readout measurements comprised collection and freezing of supernatants for LDH measurement on days 2, 5 and 7. Measurement of LDH released into supernatant was analyzed using an LDH-Glo™ Cytotoxicity Assay (Promega). Measurement of ATP content in single MTs after 7 days of treatment with was analyzed using a Cell Titer Glo™ 2.0 Cell Viability Assay (Promega). Measurement of intratissue triglyceride (TG) content after 7 days of treatment was analyzed using a Triglyceride-Glo™ Assay (Promega). […] Total TG content in MTs at day 7 of treatment was measured with Triglyceride-Glo™ Assay (Promega), according to InSphero AG protocol. The amount of glycerol/MT [pmol/MT] was calculated using linear regression to a standard curve. […]

[4] = test system: human precision cut liver slices; assay: Precision cut liver slice (PCLS) in vitro human NASH model, soluble outputs (collagen 1α1, IL-6, TIMP-1 ELISA)
Description: PCLSs were prepared from resected liver tissue and rested for 24 hours to allow the post-slicing stress period to elapse before experiments began. […] PCLS culture media, including lipids and compounds, was refreshed at 24 hrs intervals. […] PCLSs were prepared from an n=1 individual human liver. The human livers are normal margins of near-to-normal human liver obtained during a surgical resection. Tissue culture supernatant (n=3 or n=4 per group) were collected every 24 hrs and snap frozen for quantification of the soluble outputs described below. At harvest, n=2 PCLSs were harvested for a triglyceride assay, n=2 PCLSs were harvested for frozen sections (Oil Red O staining), n=2 PCLSs were formalin-fixed, paraffin embedded (FFPE) for immunohistochemistry, and n=2 PCLSs were snap frozen for RNA isolation (Table 4, Groups 1˜4 only).

For `Cc1nc(-c2cc(C(=O)N3CCC(c4ccc(C#N)cc4)CC3)c(C)cc2C2CCC2)n[nH]1` [Compound 001-152, 4-(1-(4-Cyclobutyl-2-methyl-5-(5-methyl-4H-1,2,4-triazol-3-yl)benzoyl)piperidin-4-yl)benzonitrile], the collagen production [1] was “inhibits collagen production directly; also recorded: inhibits as effectively as positive control Alk5 inhibitor”, the “intratissue Triglyceride content (NASH-induced)” value [2] was “reduced cellular triglycerides” and the “intratissue Triglyceride content” value [3] was “reduces cellular triglycerides”. For the same compound, the “fibrosis marker collagen 1α1 in culture supernatant” value [4] was “dose and time-dependent decrease”.

Source: patent publication US20250017938A1, “COMBINATION THERAPIES OF FASN INHIBITORS WITH THYROID HORMONE RECEPTOR AGONISTS” (Sagimet Biosciences Inc., priority 2023, published 2025)
